Data on three molecules can be found in US11572399B2, “Long-acting GIP peptide analogues” (University of Copenhagen, priority 2017, dated 2023).

Numbered stars: 1 amine (or outer) side, 2 acyl side, 3 side chain; on linkers, the order of the positions; unused ones are H or OH. Side chains are listed from the residue outwards. Peptide text beside a SMILES is read from it. * marks the point of attachment. γGlu = O=C(O)[C@H](CCC(=O)[*:2])N[*:1]; Palmitoyl = CCCCCCCCCCCCCCCC(=O)*; AEEA = NCCOCCOCC(=O)O

Assay [1] addresses T1, human GIP receptor (Homo sapiens, UniProt P48546).
T1 construct: host or cells: COS-7, transient transfection (calcium phosphate), cDNA in pCMV-Script
T1 sequence (P48546 22-466): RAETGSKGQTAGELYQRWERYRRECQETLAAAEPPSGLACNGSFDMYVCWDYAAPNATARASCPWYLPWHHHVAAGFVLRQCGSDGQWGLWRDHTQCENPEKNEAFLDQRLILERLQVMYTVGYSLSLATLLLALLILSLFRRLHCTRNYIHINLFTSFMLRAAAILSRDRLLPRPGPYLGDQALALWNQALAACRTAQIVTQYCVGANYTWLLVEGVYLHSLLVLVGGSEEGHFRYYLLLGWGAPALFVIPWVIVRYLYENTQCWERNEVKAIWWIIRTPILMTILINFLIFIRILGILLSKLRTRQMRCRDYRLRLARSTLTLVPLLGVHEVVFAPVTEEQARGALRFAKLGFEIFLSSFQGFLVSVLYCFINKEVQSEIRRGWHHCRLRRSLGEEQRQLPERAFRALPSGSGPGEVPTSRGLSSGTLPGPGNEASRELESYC
The assay can be described thus: cAMP accumulation assay, antagonism of a GIP-mediated cAMP response (50-80% of max). Type of assay: cell-based. The settings on record: Table 5. Here is the method: The day after, the cells were washed twice with Hepes buffered saline (HBS) buffer and incubated with HBS and 1 mM 3-isobutyl-1-methylxanthine (IBMX) for 30 min at 37° C. […] The HitHunter™ cAMP XS assay (DiscoveRx) was carried out according to the manufacturer's instructions.

The target of assay [2] is T1, human GIP receptor. In words: cAMP accumulation assay, agonism (ligand alone). Format: cell-based. The settings on record: COS-7, intrinsic cAMP activity; COS-7 cells; Table 1.
The target in assay [3] is T1, human GIP receptor. The assay can be described thus: 125I-human GIP competition binding assay, in the presence and absence of 2% HSA.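 Also: nonspecific binding taken as radioligand bound to untransfected cells, IC50 obtained from nonlinear regression fits.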

Regarding `CCCCCCCCCCCCCCCC(=O)NCCOCCOCC(=O)N[C@@H](CCC(=O)NCCCC[C@H](NC(=O)[C@@H](NC(=O)[C@H](CCCCN)NC(=O)[C@H](CC(=O)O)NC(=O)[C@H](CCSC)NC(=O)[C@H](C)NC(=O)[C@@H](NC(=O)[C@H](CO)NC(=O)[C@H](Cc1ccc(O)cc1)NC(=O)[C@H](CC(=O)O)NC(=O)[C@H](CO)NC(=O)[C@@H](NC(=O)[C@H](Cc1ccccc1)NC(=O)[C@@H](NC(=O)CNC(=O)[C@@H](N)CCC(=O)O)[C@@H](C)O)[C@@H](C)CC)[C@@H](C)CC)[C@@H](C)CC)C(=O)N[C@@H](CCC(N)=O)C(=O)N[C@@H](CCC(N)=O)C(=O)N[C@@H](CC(=O)O)C(=O)N[C@@H](Cc1ccccc1)C(=O)N[C@H](C(=O)N[C@@H](CC(N)=O)C(=O)N[C@@H](Cc1c[nH]c2ccccc12)C(=O)N[C@@H](CC(C)C)C(=O)N[C@@H](CC(C)C)C(=O)N[C@@H](C)C(=O)N[C@@H](CCC(N)=O)C(=O)N[C@@H](CCCCN)C(N)=O)C(C)C)C(=O)O` [AT167, [hGIP(3-30)NH2[H18K]-C16/18+y-glutamic acid+8-amino-3,6-dioxaoctanoic acid]] (H-EGTFISDYSIAMDKIK([γGlu-AEEA-Palmitoyl])QQDFVNWLLAQK-NH2), the “Fold change from GIP(3-30)NH2 (increase in potency)” value at human GIP receptor [1] worked out at 14.8 fold.

In the case of `CCCCCCCCCCCCCC(=O)N[C@@H](CCC(=O)O)C(=O)NCC(=O)N[C@H](C(=O)N[C@@H](Cc1ccccc1)C(=O)N[C@H](C(=O)N[C@@H](CO)C(=O)N[C@@H](CC(=O)O)C(=O)N[C@@H](Cc1ccc(O)cc1)C(=O)N[C@@H](CO)C(=O)N[C@H](C(=O)N[C@@H](C)C(=O)N[C@@H](CCSC)C(=O)N[C@@H](CC(=O)O)C(=O)N[C@@H](CCCCN)C(=O)N[C@H](C(=O)N[C@@H](Cc1c[nH]cn1)C(=O)N[C@@H](CCC(N)=O)C(=O)N[C@@H](CCC(N)=O)C(=O)N[C@@H](CC(=O)O)C(=O)N[C@@H](Cc1ccccc1)C(=O)N[C@H](C(=O)N[C@@H](CC(N)=O)C(=O)N[C@@H](Cc1c[nH]c2ccccc12)C(=O)N[C@@H](CC(C)C)C(=O)N[C@@H](CC(C)C)C(=O)N[C@@H](C)C(=O)N[C@@H](CCC(N)=O)C(=O)N[C@@H](CCCCN)C(N)=O)C(C)C)[C@@H](C)CC)[C@@H](C)CC)[C@@H](C)CC)[C@@H](C)O` [AT110, [hGIP(3-30)NH2—C14/3]], the maximal effect (Emax) on human GIP receptor [2] was found to be 64%. Besides, the “Binding fold (paired)” value at human GIP receptor [3] (fold decrease in affinity compared to GIP(3-30)NH2, Table 3b) is given as 5.2 fold.

For the molecule `CCCCCCCCCCCCCCCC(=O)NCCCC[C@H](NC(=O)[C@H](CC(=O)O)NC(=O)[C@H](CCSC)NC(=O)[C@H](C)NC(=O)[C@@H](NC(=O)[C@H](CO)NC(=O)[C@H](Cc1ccc(O)cc1)NC(=O)[C@H](CC(=O)O)NC(=O)[C@H](CO)NC(=O)[C@@H](NC(=O)[C@H](Cc1ccccc1)NC(=O)[C@@H](NC(=O)CNC(=O)[C@@H](N)CCC(=O)O)[C@@H](C)O)[C@@H](C)CC)[C@@H](C)CC)C(=O)N[C@H](C(=O)N[C@@H](CCCCN)C(=O)N[C@@H](CCC(N)=O)C(=O)N[C@@H](CCC(N)=O)C(=O)N[C@@H](CC(=O)O)C(=O)N[C@@H](Cc1ccccc1)C(=O)N[C@H](C(=O)N[C@@H](CC(N)=O)C(=O)N[C@@H](Cc1c[nH]c2ccccc12)C(=O)N[C@@H](CC(C)C)C(=O)N[C@@H](CC(C)C)C(=O)N[C@@H](C)C(=O)N[C@@H](CCC(N)=O)C(=O)N[C@@H](CCCCN)C(N)=O)C(C)C)[C@@H](C)CC` [AT163, [hGIP(3-30)NH2[H18K]-C16/16]] (H-EGTFISDYSIAMDK(Palmitoyl)IKQQDFVNWLLAQK-NH2; N-terminus assumed), the Emax at human GIP receptor [2] stood at 0%. Besides, the IC50 on human GIP receptor [3] (heterologous competition binding, transiently transfected COS-7 cells expressing the human GIP receptor, read-out: Binding) worked out at 0.205 µM.
